Test results taken from US20250019370A1, “L-LYSINE SALT OF 4-CHLORO-5-[4-(2,6-DICHLOROPHENYL)SULFONYLPIPERAZIN-1-YL]-1-BENZOFURAN-2-CARBOXYLIC ACID AND VARIOUS FORMS THEREOF” (ENYO PHARMA, priority 2023, published 2025).

Assay: Solubility kinetics in FeSSIF medium
Format: physicochemical
Conditions: for Soluble fraction: 37 ° C.; for Soluble fraction / pH: listed as EYP001 L-Lysine salt (Form I); for pH: pH printed with the soluble fraction
Protocol: The solubility kinetics of the salt forms as well as the native EYP001 free acid form were determined in FaSSIF and FeSSIF media, and in a pH 4.5 acetate buffer as detailed below: The samples were prepared by adding an excess of each tested bulk (salt or native EYP001) to a given volume of test medium. […] In FaSSIF medium, the soluble concentration was assessed after 24 hours of stirring. […] At each time point, the “supernatant” was isolated and diluted in a solvent mixture allowing its injection into the chromatographic system. The concentration in solution in the test medium was determined by HPLC with external standardization.

NCCCC[C@H](N)C(=O)O.O=C(O)c1cc2c(Cl)c(N3CCN(S(=O)(=O)c4c(Cl)cccc4Cl)CC3)ccc2o1 [EYP001 L-lysine salt Form I, L-lysine salt of 4-chloro-5-[4-(2,6-dichlorophenyl)sulfonylpiperazin-1-yl]-1-benzofuran-2-carboxylic acid]
solubility compared to EYP001 free acid and EYP001 Potassium salt (37° C.): higher solubility | Soluble fraction (after 0.5 h): 0.44 mg/mL of EYP001 | Soluble fraction (after 1 h): 0.46 mg/mL of EYP001 | pH (after 0.5 h): (pH = 5.0) | pH (after 1 h): (pH = 5.0)
